Reference: ChEMBL document CHEMBL1201862, “PubChem BioAssay data set” (2004)
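Test compounds were applied to cells in 96-well plates for 48 hours at 5 doses. At the GI50, growth is halved.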 Active and inactive are the calls of the source. No stated cut-off is given here; in the data, active = GI50 up to about 1.1 µM and inactive = higher.

Columns and labels:
Assay in all cases: DTP human tumour cell line panel, 48 h
[1] = tested on: SN12C
[2] = tested on: NCI-H226
[3] = tested on: MDA-N
[4] = tested on: UO-31
[5] = tested on: KM12
[6] = tested on: U-251
[7] = tested on: NCI-H460
[8] = tested on: HOP-62
[9] = tested on: SNB-19
[10] = tested on: HT-29
[11] = tested on: LOX IMVI
[12] = tested on: CCRF-CEM
[13] = tested on: SF-295
[14] = tested on: OVCAR-5
[15] = tested on: 786-0
[16] = tested on: BT-549
[17] = tested on: SF-268
[18] = tested on: MCF7
[19] = tested on: HCT-15
[20] = tested on: SR

## CNC(=O)CN(C)C(=O)CCC(=O)N(C)C
[1]
  GI50: > 100 µM (inactive)
[2]
  GI50: > 100 µM (inactive)
[3]
  GI50: > 100 µM (inactive)
[4]
  GI50: > 100 µM (inactive)
[5]
  GI50: > 100 µM (inactive)
[6]
  GI50: > 100 µM (inactive)
[7]
  GI50: > 100 µM (inactive)
[8]
  GI50: > 100 µM (inactive)
[9]
  GI50: > 100 µM (inactive)
[10]
  GI50: > 100 µM (inactive)
[11]
  GI50: > 100 µM (inactive)
[12]
  GI50: > 100 µM (inactive)
[13]
  GI50: > 100 µM (inactive)
[14]
  GI50: > 100 µM (inactive)
[15]
  GI50: > 100 µM (inactive)
[16]
  GI50: > 100 µM (inactive)
[17]
  GI50: > 100 µM (inactive)
[18]
  GI50: > 100 µM (inactive)
[19]
  GI50: > 100 µM

## Cc1c(C)c(C)c(Cn2[nH]c(=O)n(C)c2=O)c(C)c1C
[1]
  GI50: > 100 µM (inactive)
[2]
  GI50: > 100 µM (inactive)
[3]
  GI50: > 100 µM (inactive)
[4]
  GI50: > 100 µM (inactive)
[5]
  GI50: > 100 µM (inactive)
[6]
  GI50: > 100 µM (inactive)
[7]
  GI50: > 100 µM (inactive)
[8]
  GI50: > 100 µM (inactive)
[9]
  GI50: > 100 µM (inactive)
[10]
  GI50: > 100 µM (inactive)
[11]
  GI50: > 100 µM (inactive)
[12]
  GI50: > 100 µM (inactive)
[13]
  GI50: > 100 µM (inactive)
[15]
  GI50: > 100 µM (inactive)
[16]
  GI50: > 100 µM (inactive)
[17]
  GI50: > 100 µM (inactive)
[18]
  GI50: > 100 µM (inactive)
[19]
  GI50: > 100 µM

## N#CC1(C#N)C2CCCCC23OC(=N)C1(C#N)C(c1ccco1)O3 (stereo not given)
[1]
  GI50: 14.8 µM (inactive)
[2]
  GI50: > 100 µM (inactive)
[3]
  GI50: 17.4 µM (inactive)
[4]
  GI50: 30.3 µM (inactive)
[5]
  GI50: 33.8 µM (inactive)
[6]
  GI50: > 10 µM (inactive)
[7]
  GI50: 25.8 µM (inactive)
[9]
  GI50: 31.6 µM (inactive)
[10]
  GI50: 26.7 µM (inactive)
[11]
  GI50: 17.2 µM (inactive)
[12]
  GI50: 10.5 µM (inactive)
[13]
  GI50: > 100 µM (inactive)
[14]
  GI50: 24.9 µM (inactive)
[15]
  GI50: 14.5 µM (inactive)
[16]
  GI50: 15.6 µM (inactive)
[17]
  GI50: 30.8 µM (inactive)
[18]
  GI50: 21.9 µM (inactive)
[19]
  GI50: 9.23 µM

## Nc1ncnc2c1ccn2C/C=C\CO
[1]
  GI50: > 100 µM (inactive)
[3]
  GI50: > 100 µM (inactive)
[4]
  GI50: > 100 µM (inactive)
[5]
  GI50: > 100 µM (inactive)
[6]
  GI50: > 100 µM (inactive)
[7]
  GI50: > 100 µM (inactive)
[8]
  GI50: > 100 µM (inactive)
[9]
  GI50: > 100 µM (inactive)
[10]
  GI50: > 100 µM (inactive)
[11]
  GI50: > 100 µM (inactive)
[12]
  GI50: > 100 µM (inactive)
[13]
  GI50: > 100 µM (inactive)
[14]
  GI50: > 100 µM (inactive)
[15]
  GI50: > 100 µM (inactive)
[16]
  GI50: > 100 µM (inactive)
[17]
  GI50: > 100 µM (inactive)
[18]
  GI50: > 100 µM (inactive)
[19]
  GI50: > 100 µM

## CC(C)n1c2c(c3ccccc3c1=O)C(=O)c1ccccc1-2
[1]
  GI50: > 100 µM (inactive)
[2]
  GI50: > 100 µM (inactive)
[3]
  GI50: > 100 µM (inactive)
[4]
  GI50: > 100 µM (inactive)
[5]
  GI50: > 100 µM (inactive)
[6]
  GI50: > 100 µM (inactive)
[8]
  GI50: > 100 µM (inactive)
[9]
  GI50: > 100 µM (inactive)
[10]
  GI50: > 100 µM (inactive)
[11]
  GI50: > 100 µM (inactive)
[12]
  GI50: > 100 µM (inactive)
[13]
  GI50: > 100 µM (inactive)
[20]
  GI50: > 100 µM (inactive)
[14]
  GI50: > 100 µM (inactive)
[15]
  GI50: > 100 µM (inactive)
[16]
  GI50: > 100 µM (inactive)
[17]
  GI50: > 100 µM (inactive)
[18]
  GI50: > 100 µM (inactive)
[19]
  GI50: > 100 µM

## CCSc1cc(=O)n(C)c(=O)n1C
[1]
  GI50: > 100 µM (inactive)
[2]
  GI50: > 100 µM (inactive)
[3]
  GI50: > 100 µM (inactive)
[4]
  GI50: > 100 µM (inactive)
[5]
  GI50: > 100 µM (inactive)
[6]
  GI50: > 100 µM (inactive)
[7]
  GI50: > 100 µM (inactive)
[8]
  GI50: > 100 µM (inactive)
[9]
  GI50: > 100 µM (inactive)
[10]
  GI50: > 100 µM (inactive)
[11]
  GI50: > 100 µM (inactive)
[12]
  GI50: > 100 µM (inactive)
[13]
  GI50: > 100 µM (inactive)
[14]
  GI50: > 100 µM (inactive)
[15]
  GI50: > 100 µM (inactive)
[16]
  GI50: > 100 µM (inactive)
[17]
  GI50: > 100 µM (inactive)
[18]
  GI50: > 100 µM (inactive)
[19]
  GI50: > 100 µM

## O=C(O)C1=NN(c2ccc(S(=O)(=O)O)cc2)C2(C1)C(Cl)C(=O)N2c1nc2ccccc2s1 (stereo not given)
[1]
  GI50: 17.8 µM (inactive)
[2]
  GI50: 16.5 µM (inactive)
[3]
  GI50: 21.4 µM (inactive)
[4]
  GI50: 8.3 µM (inactive)
[5]
  GI50: 14.9 µM (inactive)
[6]
  GI50: 15.8 µM (inactive)
[7]
  GI50: 16 µM (inactive)
[8]
  GI50: 12.5 µM (inactive)
[9]
  GI50: 21.3 µM (inactive)
[10]
  GI50: 17.8 µM (inactive)
[11]
  GI50: 2.99 µM (inactive)
[13]
  GI50: 15.6 µM (inactive)
[20]
  GI50: 7.82 µM (inactive)
[14]
  GI50: 17.1 µM (inactive)
[15]
  GI50: 16.1 µM (inactive)
[16]
  GI50: 17.4 µM (inactive)
[17]
  GI50: 17.9 µM (inactive)
[18]
  GI50: 14.4 µM (inactive)
[19]
  GI50: 20.6 µM
